Experimental data as given in patent US4003887A, “Novel penicillins and their preparation” (Sumitomo Chemical Company, Limited, priority 1972, dated 1977).
Converted amounts (≈) assume the structure as drawn.

tested on: Klebsiella pneumoniae PC1602; test: Minimal inhibitory concentration, agar dilution method; type: cell-based
Excerpt: When determined according to the agar dilution method, the penicillins (I) afford the minimal inhibitory concentrations against test microorganisms as shown in Table 2.

Row | Compound | MIC [µg/mL] | Minimal inhibitory concentration [µg/mL]
1 | CC1(C)S[C@@H]2[C@H](NC(=O)C(NC(=O)c3cnc4cccnc4c3O)c3ccc(O)cc3)C(=O)N2[C@H]1C(=O)O (mixture of isomers) [Example 2, DL-α-(4-hydroxy-1,5-naphthyridine-3-carboxamido)-p-hydroxybenzylpenicillin] | 25 | 
2 | CC1(C)S[C@@H]2[C@H](NC(=O)C(NC(=O)c3cnc4ccccc4c3O)c3ccc(O)cc3)C(=O)N2[C@H]1C(=O)O (mixture of isomers) [Example 6, DL-α-(4-hydroxyquinoline-3-carboxamido)-p-hydroxybenzylpenicillin] | 25 | 
3 | CC1(C)S[C@@H]2[C@H](NC(=O)C(C(=O)O)c3ccccc3)C(=O)N2[C@H]1C(=O)O (stereo partly drawn) [Carbenicillin, reference compound] | > 200 | 
4 | Cc1ccc2c(O)c(C(=O)N[C@@H](C(=O)N[C@@H]3C(=O)N4[C@@H]3SC(C)(C)[C@@H]4C(=O)O)c3ccc(O)cc3)cnc2n1 [Example 7, D-α-(4-hydroxy-7-methyl-1,8-naphthyridine-3-carboxamido)-p-hydroxybenzylpenicillin] | 12.5 (≈ 22.7 µM) | 
5 | CC1(C)S[C@@H]2[C@H](NC(=O)[C@H](NC(=O)c3nnc4ccccc4c3O)c3ccc(O)cc3)C(=O)N2[C@H]1C(=O)O [Example 8, D-α-(4-hydroxycinnoline-3-carboxamido)-p-hydroxybenzylpenicillin] | 25 (≈ 46.5 µM) | 
6 | CCOC(=O)Oc1ccc([C@@H](NC(=O)c2cnc3cc(Cl)ccc3c2O)C(=O)N[C@@H]2C(=O)N3[C@@H]2SC(C)(C)[C@@H]3C(=O)O)cc1 [Example 10] | 3.13 (≈ 4.87 µM) | 
7 | CC1(C)S[C@@H]2[C@H](NC(=O)[C@H](NC(=O)c3cnc4ccccc4c3O)c3ccc(O)c(Cl)c3)C(=O)N2[C@H]1C(=O)O [Example 14] | 25 (≈ 43.8 µM) | 
8 | CC1(C)S[C@@H]2[C@H](NC(=O)C(NC(=O)c3cnc4cccnc4c3O)c3cccc(O)c3)C(=O)N2[C@H]1C(=O)O (stereo partly drawn) [Example 16] | 25 (≈ 46.5 µM) | 
9 | CCOC(=O)Oc1ccc([C@@H](NC(=O)c2cnc3ccc(SC)nc3c2O)C(=O)N[C@@H]2C(=O)N3[C@@H]2SC(C)(C)[C@@H]3C(=O)O)cc1 [Example 17] | 3.13 (≈ 4.77 µM) | 
10 | Cc1ccc2ncc(C(=O)N[C@@H](C(=O)N[C@@H]3C(=O)N4[C@@H]3SC(C)(C)[C@@H]4C(=O)O)c3ccc(O)cc3)c(O)c2n1 [Example 18] | 12.5 (≈ 22.7 µM) | 
11 | CCOC(=O)Oc1ccc([C@@H](NC(=O)c2cnc3cc([N+](=O)[O-])ccc3c2O)C(=O)N[C@@H]2C(=O)N3[C@@H]2SC(C)(C)[C@@H]3C(=O)O)cc1 [Example 20] | 3.13 (≈ 4.79 µM) | 
12 | CC1(C)S[C@@H]2[C@H](NC(=O)[C@H](NC(=O)c3cnc4ccc(O)nc4c3O)c3ccc(O)cc3)C(=O)N2[C@H]1C(=O)O [Example 22] | 12.5 (≈ 22.6 µM) | 
13 | CC1(C)S[C@@H]2[C@H](NC(=O)[C@H](NC(=O)c3cnc4ccc(N)nc4c3O)c3ccc(O)cc3)C(=O)N2[C@H]1C(=O)O [Example 24] | 12.5 (≈ 22.6 µM) | 
14 | CC1(C)S[C@@H]2[C@H](NC(=O)C(NC(=O)c3cnc4cccnc4c3O)c3cccc(O)c3)C(=O)N2[C@H]1C(=O)O (stereo partly drawn) [Example 26] |  | 25 (≈ 46.5 µM)
15 | COc1nc(OC)c2c(O)c(C(=O)N[C@@H](C(=O)N[C@@H]3C(=O)N4[C@@H]3SC(C)(C)[C@@H]4C(=O)O)c3ccc(O)cc3)cnc2n1 [Example 28] | 12.5 (≈ 20.9 µM) | 
16 | CC(C)COC(=O)Oc1ccc([C@@H](NC(=O)c2cnc3nc(N(C)C)ncc3c2O)C(=O)N[C@@H]2C(=O)N3[C@@H]2SC(C)(C)[C@@H]3C(=O)O)cc1 [Example 30] | 12.5 (≈ 18.3 µM) | 

Continued by falling MIC, values first:

Row | MIC [µg/mL] | Compound | Minimal inhibitory concentration [µg/mL]
17 | 25 (≈ 36.7 µM) | CCOC(=O)Oc1ccc([C@@H](NC(=O)c2cnc3ccccc3c2OC(=O)OCC)C(=O)N[C@@H]2C(=O)N3[C@@H]2SC(C)(C)[C@@H]3C(=O)O)cc1 [Example 12] | 
18 | 25 (≈ 46.6 µM) | CC1(C)S[C@@H]2[C@H](NC(=O)[C@H](NC(=O)c3cnc4ccccc4c3O)c3cccc(O)c3)C(=O)N2[C@H]1C(=O)O [Example 13] | 
19 | 25 (≈ 37.5 µM) | CCOC(=O)Oc1ccc([C@@H](NC(=O)c2cnc3ccc(NC(C)=O)nc3c2O)C(=O)N[C@@H]2C(=O)N3[C@@H]2SC(C)(C)[C@@H]3C(=O)O)cc1 [Example 23] | 
20 | 25 (≈ 46.5 µM) | CC1(C)S[C@@H]2[C@H](NC(=O)[C@H](NC(=O)c3cnc4ccncc4c3O)c3ccc(O)cc3)C(=O)N2[C@H]1C(=O)O [Example 29] | 
21 | 25 (≈ 43.7 µM) | CC1(C)S[C@@H]2[C@H](NC(=O)[C@H](NC(=O)c3cnc4cccnc4c3O)c3ccc(O)c(Cl)c3)C(=O)N2[C@H]1C(=O)O [Example 32] | 
22 | 12.5 (≈ 23.3 µM) | CC1(C)S[C@@H]2[C@H](NC(=O)[C@H](NC(=O)c3cnc4cccnc4c3O)c3ccc(O)cc3)C(=O)N2[C@H]1C(=O)O [Example 1, D-α-(4-hydroxy-1,5-naphthyridine-3-carboxyamido)-p-hydroxybenzylpenicillin] | 
23 | 12.5 (≈ 20.1 µM) | CC(C)(C)C(=O)Oc1ccc([C@@H](NC(=O)c2cnc3ccccc3c2O)C(=O)N[C@@H]2C(=O)N3[C@@H]2SC(C)(C)[C@@H]3C(=O)O)cc1 [Example 4, D-α-(4-hydroxyquinoline-3-carboxamido)-p-pivaloyloxybenzylpenicillin] | 
24 | 12.5 (≈ 16.8 µM) | CCOC(=O)Oc1c(C(=O)N[C@@H](C(=O)N[C@@H]2C(=O)N3[C@@H]2SC(C)(C)[C@@H]3C(=O)O)c2ccc(OC(=O)OCc3ccccc3)cc2)cnc2cccnc12 [Example 5, D-α-(4-ethoxycarbonyloxy-1,5-naphthyridine-3-carboxamido)-p-benzyloxycarbonyloxybenzylpenicillin] | 
25 | 12.5 (≈ 20.5 µM) | CCOC(=O)Oc1ccc([C@@H](NC(=O)c2cnc3cccnc3c2O)C(=O)N[C@@H]2C(=O)N3[C@@H]2SC(C)(C)[C@@H]3C(=O)O)cc1 [Example 9, D-α-(4-hydroxy-1,5-naphthyridine-3-carboxamido)-p-ethoxycarbonyloxybenzylpenicillin] | 
26 | 12.5 (≈ 20 µM) | CCOC(=O)Oc1ccc([C@@H](NC(=O)c2cnc3nc(C)ccc3c2O)C(=O)N[C@@H]2C(=O)N3[C@@H]2SC(C)(C)[C@@H]3C(=O)O)cc1 [Example 15] | 
27 | 12.5 (≈ 22 µM) | COc1ccc2ncc(C(=O)N[C@@H](C(=O)N[C@@H]3C(=O)N4[C@@H]3SC(C)(C)[C@@H]4C(=O)O)c3ccc(O)cc3)c(O)c2n1 [Example 19] | 
28 | 12.5 (≈ 18.2 µM) | CCOC(=O)Oc1ccc([C@@H](NC(=O)c2cnc3ccc(N(C)C)nc3c2O)C(=O)N[C@@H]2C(=O)N3[C@@H]2SC(C)(C)[C@@H]3C(=O)O)cc1Cl [Example 25] | 
29 | 12.5 (≈ 23.3 µM) | CC1(C)S[C@@H]2[C@H](NC(=O)[C@H](NC(=O)c3cc4ccccc4nc3O)c3ccc(O)cc3)C(=O)N2[C@H]1C(=O)O [Example 27] | 
30 | 12.5 (≈ 22.1 µM) | Cc1nc(C)c2c(O)c(C(=O)N[C@@H](C(=O)N[C@@H]3C(=O)N4[C@@H]3SC(C)(C)[C@@H]4C(=O)O)c3ccc(O)cc3)cnc2n1 [Example 31] | 
31 | 12.5 (≈ 20.9 µM) | CCOC(=O)Oc1ccc([C@@H](NC(=O)c2cnc3cn[nH]c3c2O)C(=O)N[C@@H]2C(=O)N3[C@@H]2SC(C)(C)[C@@H]3C(=O)O)cc1 [Example 33] | 
32 | 3.13 | CCOC(=O)Oc1ccc(C(NC(=O)c2cnc3ccc(N(C)C)nc3c2O)C(=O)N[C@@H]2C(=O)N3[C@@H]2SC(C)(C)[C@@H]3C(=O)O)cc1 (mixture of isomers) [Example 3, DL-α-(4-hydroxy-6-dimethylamino-1,5-naphthyridine-3-carboxamido)-p-ethoxycarbonyloxybenzylpenicillin] | 
33 | 0.78 (≈ 1.29 µM) | CC1(C)S[C@@H]2[C@H](NC(=O)[C@H](NC(=O)c3cnc4cc(C(F)(F)F)ccc4c3O)c3ccc(O)cc3)C(=O)N2[C@H]1C(=O)O [Example 11] | 
